Measurements from ChEMBL document CHEMBL3351479, “Novel acylureidoindolin-2-one derivatives as dual Aurora B/FLT3 inhibitors for the treatment of acute myeloid leukemia” (Eur J Med Chem, 2014).
Active and inactive are the calls of the source. No cut-off for these calls is given here.

What was measured:
[1] = target: Mast/stem cell growth factor receptor Kit (Homo sapiens, UniProt P10721); assay: Inhibition of c-Kit (unknown origin)
[2] = target: T1, Tyrosine-protein kinase Lck (Homo sapiens, UniProt P06239); assay: Inhibition of Lck (unknown origin)
Cytochrome P450 2C9 = Cytochrome P450 2C9 (Homo sapiens, UniProt P11712); assay: Inhibition of CYP2C9 (unknown origin) using Vivid OOMR substrate; type: ADME
Cytochrome P450 2C19 = Cytochrome P450 2C19 (Homo sapiens, UniProt P33261); assay: Inhibition of CYP2C19 (unknown origin) using 3-cyano-7-ethoxycoumarin substrate; type: ADME
Cytochrome P450 2D6 = Cytochrome P450 2D6 (Homo sapiens, UniProt P10635); assay: Inhibition of CYP2D6 (unknown origin) using 3-cyano-7-ethoxycoumarin substrate; type: ADME
Cytochrome P450 3A4 = Cytochrome P450 3A4 (Homo sapiens, UniProt P08684); assay: Inhibition of CYP3A4 (unknown origin) using Vivid OOMR substrate; type: ADME
[3] = target: Voltage-gated inwardly rectifying potassium channel KCNH2 (Homo sapiens, UniProt Q12809); assay: Inhibition of human ERG channel after 3 hrs by fluorescence assay
Vero = assay: Cytotoxicity against african green monkey Vero cells at 10 uM after 48 hrs by MTT assay; type: cell-based; settings: chlorocebus sabaeus
[4] = Volume of distribution at steady state in BALB/c mouse at 2 mg/kg, iv; type: ADME, organism-based; design: dose 2 mg/kg, route intravenous; settings: in vivo, read-out: Vdss
[5] = Clearance in BALB/c mouse at 2 mg/kg, iv; type: ADME, organism-based; design: dose 2 mg/kg, route intravenous; settings: in vivo
[6] = Half life in BALB/c mouse at 2 mg/kg, iv; type: ADME, organism-based; design: dose 2 mg/kg, route intravenous; settings: in vivo
[7] = Half life in BALB/c mouse at 10 mg/kg, po; type: ADME, organism-based; design: dose 10 mg/kg, route oral; settings: in vivo
[8] = Tmax in BALB/c mouse at 2 mg/kg, iv; type: ADME, organism-based; design: dose 2 mg/kg, route intravenous; settings: in vivo
[9] = Tmax in BALB/c mouse at 10 mg/kg, po; type: ADME, organism-based; design: dose 10 mg/kg, route oral; settings: in vivo
[10] = Cmax in BALB/c mouse at 2 mg/kg, iv; type: ADME, organism-based; design: dose 2 mg/kg, route intravenous; settings: in vivo
[11] = Cmax in BALB/c mouse at 10 mg/kg, po; type: ADME, organism-based; design: dose 10 mg/kg, route oral; settings: in vivo
[12] = AUC (0 to 24 hrs) in BALB/c mouse at 2 mg/kg, iv; type: ADME, organism-based; design: time < 24 hr, dose 2 mg/kg, route intravenous; settings: plasma
[13] = AUC (0 to 24 hrs) in BALB/c mouse at 10 mg/kg, po; type: ADME, organism-based; design: time < 24 hr, dose 10 mg/kg, route oral; settings: plasma
[14] = Oral bioavailability in BALB/c mouse at 10 mg/kg; type: ADME, organism-based; settings: in vivo
MOLM-13 [15] = assay: Antitumor activity against human MOLM13 cells xenografted in BALB/c AnN.Cg-Foxnlnu/CrlNarl mouse assessed as reduction in tumor growth at 10 mg/kg, ip once daily for 16 days; type: functional; settings: MOLM-13, ip, 384 h, route intraperitoneal
Mus musculus = assay: Toxicity in BALB/c AnN.Cg-Foxnlnu/CrlNarl mouse xenografted with human MOLM13 cells assessed as body weight loss at 10 mg/kg, ip administered qd for 16 days; type: organism-based, MOLM-13; design: dose 10 mg/kg, route intraperitoneal; settings: in vivo, 384 h
MOLM-13 [16] = assay: Antitumor activity against human MOLM13 cells xenografted in BALB/cAnN.Cg-Foxnlnu/CrlNarl mouse assessed as reduction in tumor mass at 10 mg/kg, ip once daily for 16 days; type: functional; settings: MOLM-13, ip, 384 h, route intraperitoneal
[17] = Toxicity in BALB/c AnN.Cg-Foxnlnu/CrlNarl mouse xenografted with human MOLM13 cells at 10 mg/kg, ip administered qd for 16 days; type: organism-based, MOLM-13; design: dose 10 mg/kg, route intraperitoneal; settings: in vivo
[18] = Therapeutic index, ratio of LD50 for BALB/c AnN.Cg-Foxnlnu/CrlNarl mouse to ED50 for antitumor activity against human MOLM13 cells xenografted in BALB/c AnN.Cg-Foxnlnu/CrlNarl mouse; type: cell-based, MOLM-13; settings: in vivo, read-out: Ratio LD50/ED50
[19] = Ratio of solubility in PBS to solubility in DMSO; type: physicochemical
MV4-11 = assay: Cytotoxicity against human MV4-11 cells assessed as cell viability after 48 hrs by MTT assay; type: functional, cell-based; settings: Homo sapiens, MV4-11, 48 h
MOLM-13 [20] = assay: Cytotoxicity against human MOLM13 cells assessed as cell viability after 48 hrs by MTT assay; type: functional, cell-based; settings: MOLM-13, 48 h
THP-1 [21] = assay: Cytotoxicity against human THP1 cells assessed as cell viability after 48 hrs by MTT assay; type: functional, cell-based; settings: Homo sapiens, THP-1, 48 h
[22] = Cytotoxicity against human HL60 cells assessed as cell viability after 48 hrs by MTT assay; type: functional, cell-based; settings: HL-60, 48 h
[23] = Permeability coefficient of the compound at pH 7.4 by PAMPA-GIT assay; type: ADME; settings: read-out: Peff
[24] = target: Cytochrome P450 1A2 (Homo sapiens) (UniProt P05177); assay: Inhibition of CYP1A2 (unknown origin) using 3-cyano-7-ethoxycoumarin substrate
[25] = target: Vascular endothelial growth factor receptor 2 (Homo sapiens) (UniProt P35968); assay: Inhibition of KDR/VEGFR2 (unknown origin) at 1 uM
[26] = target: Tyrosine-protein kinase Lyn (Homo sapiens) (UniProt P07948); assay: Inhibition of Lyn (unknown origin) at 1 uM
[27] = target: Dual specificity mitogen-activated protein kinase kinase 1 (Homo sapiens) (UniProt Q02750); assay: Inhibition of MEK1/MAP2K1 (unknown origin) at 1 uM
[28] = target: Serine/threonine-protein kinase mTOR (Homo sapiens) (UniProt P42345); assay: Inhibition of mTOR/FRAP1 (unknown origin) at 1 uM
[29] = target: Platelet-derived growth factor receptor alpha (Homo sapiens) (UniProt P16234); assay: Inhibition of PDGFRalpha (unknown origin) at 1 uM
[30] = target: Platelet-derived growth factor receptor beta (Homo sapiens) (UniProt P09619); assay: Inhibition of PDGFRbeta (unknown origin) at 1 uM
[31] = target: Serine/threonine-protein kinase PLK1 (Homo sapiens) (UniProt P53350); assay: Inhibition of Plk1 (unknown origin) at 1 uM
[32] = target: Rho-associated protein kinase 1 (Homo sapiens) (UniProt Q13464); assay: Inhibition of ROCK1 (unknown origin) at 1 uM
[33] = target: Angiopoietin-1 receptor (Homo sapiens) (UniProt Q02763); assay: Inhibition of TEK/Tie-2 (unknown origin) at 1 uM
MOLM-13 [34] = assay: Antitumor activity against human MOLM13 cells xenografted in ip dosed BALB/c AnN.Cg-Foxnlnu/CrlNarl mouse assessed as reduction in tumor growth treated once daily for 16 days; type: functional, organism-based
[35] = target: Receptor-type tyrosine-protein kinase FLT3 (Homo sapiens) (UniProt P36888); assay: Inhibition of Aurora B/FLT3 in human MOLM13 cells assessed as inhibition of STAT5 phosphorylation after 4 hrs by Dot-blot analysis; type: cell-based; settings: MOLM-13
[36] = target: Receptor-type tyrosine-protein kinase FLT3 (Homo sapiens) (UniProt P36888); assay: Inhibition of Aurora B/FLT3 in human MOLM13 cells assessed as inhibition of HH3 phosphorylation after 4 hrs by Dot-blot analysis; type: cell-based; settings: MOLM-13
THP-1 [37] = assay: Induction of apoptosis in human THP1 cells assessed as caspase 3 activation after 24 hrs; type: functional, cell-based
THP-1 [38] = assay: Induction of apoptosis in human THP1 cells assessed as caspase 8 activation after 24 hrs; type: functional, cell-based
MOLM-13 [39] = assay: Induction of apoptosis in human MOLM13 cells assessed as caspase 3 activation after 24 hrs; type: functional, cell-based
MOLM-13 [40] = assay: Induction of apoptosis in human MOLM13 cells assessed as caspase 8 activation after 24 hrs; type: functional, cell-based
A549 = assay: Induction of apoptosis in human A549 cells assessed as caspase 8 activation after 24 hrs; type: functional, cell-based
MOLM-13 [41] = assay: Induction of apoptosis in human MOLM13 cells assessed as increase in FasL level up to 20 uM; type: functional, cell-based
[42] = target: RAC-alpha serine/threonine-protein kinase (Homo sapiens) (UniProt P31749); assay: Inhibition of AKT1 (unknown origin) at 1 uM
[43] = target: Tyrosine-protein kinase ABL1 (Homo sapiens) (UniProt P00519); assay: Inhibition of ABL1 (unknown origin) at 1 uM
[44] = target: Aurora kinase A (Homo sapiens) (UniProt O14965); assay: Inhibition of Aurora A (unknown origin) at 1 uM
[45] = target: Aurora kinase C (Homo sapiens) (UniProt Q9UQB9); assay: Inhibition of Aurora C (unknown origin) at 1 uM
[46] = target: Serine/threonine-protein kinase B-raf (Homo sapiens) (UniProt P15056); assay: Inhibition of BRAF (unknown origin) at 1 uM
[47] = target: Hepatocyte growth factor receptor (Homo sapiens) (UniProt P08581); assay: Inhibition of c-Met (unknown origin) at 1 uM
[48] = target: Proto-oncogene tyrosine-protein kinase Src (Homo sapiens) (UniProt P12931); assay: Inhibition of c-Src (unknown origin) at 1 uM
[49] = target: Serine/threonine-protein kinase Chk1 (Homo sapiens) (UniProt O14757); assay: Inhibition of CHK1 (unknown origin) at 1 uM
[50] = target: Epidermal growth factor receptor (Homo sapiens) (UniProt P00533); assay: Inhibition of EGFR (unknown origin) at 1 uM
[51] = target: Receptor tyrosine-protein kinase erbB-2 (Homo sapiens) (UniProt P04626); assay: Inhibition of ERBB2/Her2 (unknown origin) at 1 uM
[52] = target: Fibroblast growth factor receptor 1 (Homo sapiens) (UniProt P11362); assay: Inhibition of FGFR1 (unknown origin) at 1 uM
[53] = target: Insulin-like growth factor 1 receptor (Homo sapiens) (UniProt P08069); assay: Inhibition of IGF1R (unknown origin) at 1 uM
[54] = target: Tyrosine-protein kinase JAK2 (Homo sapiens) (UniProt O60674); assay: Inhibition of JAK2 (unknown origin) at 1 uM
[55] = target: Mitogen-activated protein kinase 9 (Homo sapiens) (UniProt P45984); assay: Inhibition of JNK2 (unknown origin) at 1 uM
[56] = target: T1, Tyrosine-protein kinase Lck; settings: 1 uM
Target sequence in this assay (P06239 2-509 limits assumed): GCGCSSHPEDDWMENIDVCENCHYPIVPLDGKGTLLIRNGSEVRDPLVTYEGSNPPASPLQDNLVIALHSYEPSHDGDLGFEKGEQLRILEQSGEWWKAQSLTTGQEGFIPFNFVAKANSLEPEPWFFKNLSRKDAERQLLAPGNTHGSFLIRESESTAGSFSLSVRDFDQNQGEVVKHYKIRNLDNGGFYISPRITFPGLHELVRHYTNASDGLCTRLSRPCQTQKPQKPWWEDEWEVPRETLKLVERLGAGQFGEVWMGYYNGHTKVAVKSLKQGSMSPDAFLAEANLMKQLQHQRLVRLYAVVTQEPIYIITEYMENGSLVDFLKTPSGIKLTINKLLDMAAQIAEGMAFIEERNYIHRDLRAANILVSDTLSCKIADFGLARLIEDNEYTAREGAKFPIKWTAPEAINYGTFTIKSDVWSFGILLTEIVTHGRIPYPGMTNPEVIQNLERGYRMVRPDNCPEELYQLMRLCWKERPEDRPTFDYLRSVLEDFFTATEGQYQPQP
Description: Inhibition of Lck (unknown origin) at 1 uM

Chain of Receptor-type tyrosine-protein kinase FLT3 (Homo sapiens) (P36888 whole entry): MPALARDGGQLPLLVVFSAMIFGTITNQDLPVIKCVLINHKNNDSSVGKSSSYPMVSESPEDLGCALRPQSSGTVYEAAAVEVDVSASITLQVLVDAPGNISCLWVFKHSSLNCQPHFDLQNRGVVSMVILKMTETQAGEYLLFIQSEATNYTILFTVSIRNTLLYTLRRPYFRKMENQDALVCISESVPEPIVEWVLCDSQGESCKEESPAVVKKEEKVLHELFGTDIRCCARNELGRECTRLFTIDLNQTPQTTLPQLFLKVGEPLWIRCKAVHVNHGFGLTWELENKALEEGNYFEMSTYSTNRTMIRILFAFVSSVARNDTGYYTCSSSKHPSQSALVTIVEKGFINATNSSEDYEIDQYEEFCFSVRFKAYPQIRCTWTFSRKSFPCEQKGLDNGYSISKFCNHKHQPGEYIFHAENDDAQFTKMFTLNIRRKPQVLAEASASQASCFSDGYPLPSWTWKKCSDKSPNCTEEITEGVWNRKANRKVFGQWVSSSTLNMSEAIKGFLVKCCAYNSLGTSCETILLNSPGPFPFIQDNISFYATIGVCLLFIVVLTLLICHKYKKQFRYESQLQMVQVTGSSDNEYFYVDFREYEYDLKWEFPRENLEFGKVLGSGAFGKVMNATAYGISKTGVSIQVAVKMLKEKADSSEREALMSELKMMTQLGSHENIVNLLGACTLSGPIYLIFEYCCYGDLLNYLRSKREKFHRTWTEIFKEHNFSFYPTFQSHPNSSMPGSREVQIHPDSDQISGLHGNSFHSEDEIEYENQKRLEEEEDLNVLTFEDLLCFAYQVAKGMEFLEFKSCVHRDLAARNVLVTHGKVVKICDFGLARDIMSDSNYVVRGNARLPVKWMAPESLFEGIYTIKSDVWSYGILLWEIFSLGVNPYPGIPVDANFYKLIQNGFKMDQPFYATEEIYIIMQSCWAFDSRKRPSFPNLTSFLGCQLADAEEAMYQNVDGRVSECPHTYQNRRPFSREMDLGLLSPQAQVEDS
Chain of Cytochrome P450 2C19 (P33261 whole entry): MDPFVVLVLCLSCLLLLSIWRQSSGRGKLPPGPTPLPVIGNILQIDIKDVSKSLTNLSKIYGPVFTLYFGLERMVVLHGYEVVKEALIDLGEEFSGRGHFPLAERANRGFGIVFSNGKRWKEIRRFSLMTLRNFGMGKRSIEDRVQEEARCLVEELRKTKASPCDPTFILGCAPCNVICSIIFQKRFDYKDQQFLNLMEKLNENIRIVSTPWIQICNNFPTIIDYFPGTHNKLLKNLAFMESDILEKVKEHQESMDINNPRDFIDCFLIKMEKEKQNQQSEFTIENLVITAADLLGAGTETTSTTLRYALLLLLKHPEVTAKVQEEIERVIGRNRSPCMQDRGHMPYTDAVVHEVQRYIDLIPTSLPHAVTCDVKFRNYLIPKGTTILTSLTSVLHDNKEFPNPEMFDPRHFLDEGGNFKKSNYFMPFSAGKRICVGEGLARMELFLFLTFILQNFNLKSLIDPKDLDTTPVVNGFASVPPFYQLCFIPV
Chain of Vascular endothelial growth factor receptor 2 (Homo sapiens) (P35968 whole entry): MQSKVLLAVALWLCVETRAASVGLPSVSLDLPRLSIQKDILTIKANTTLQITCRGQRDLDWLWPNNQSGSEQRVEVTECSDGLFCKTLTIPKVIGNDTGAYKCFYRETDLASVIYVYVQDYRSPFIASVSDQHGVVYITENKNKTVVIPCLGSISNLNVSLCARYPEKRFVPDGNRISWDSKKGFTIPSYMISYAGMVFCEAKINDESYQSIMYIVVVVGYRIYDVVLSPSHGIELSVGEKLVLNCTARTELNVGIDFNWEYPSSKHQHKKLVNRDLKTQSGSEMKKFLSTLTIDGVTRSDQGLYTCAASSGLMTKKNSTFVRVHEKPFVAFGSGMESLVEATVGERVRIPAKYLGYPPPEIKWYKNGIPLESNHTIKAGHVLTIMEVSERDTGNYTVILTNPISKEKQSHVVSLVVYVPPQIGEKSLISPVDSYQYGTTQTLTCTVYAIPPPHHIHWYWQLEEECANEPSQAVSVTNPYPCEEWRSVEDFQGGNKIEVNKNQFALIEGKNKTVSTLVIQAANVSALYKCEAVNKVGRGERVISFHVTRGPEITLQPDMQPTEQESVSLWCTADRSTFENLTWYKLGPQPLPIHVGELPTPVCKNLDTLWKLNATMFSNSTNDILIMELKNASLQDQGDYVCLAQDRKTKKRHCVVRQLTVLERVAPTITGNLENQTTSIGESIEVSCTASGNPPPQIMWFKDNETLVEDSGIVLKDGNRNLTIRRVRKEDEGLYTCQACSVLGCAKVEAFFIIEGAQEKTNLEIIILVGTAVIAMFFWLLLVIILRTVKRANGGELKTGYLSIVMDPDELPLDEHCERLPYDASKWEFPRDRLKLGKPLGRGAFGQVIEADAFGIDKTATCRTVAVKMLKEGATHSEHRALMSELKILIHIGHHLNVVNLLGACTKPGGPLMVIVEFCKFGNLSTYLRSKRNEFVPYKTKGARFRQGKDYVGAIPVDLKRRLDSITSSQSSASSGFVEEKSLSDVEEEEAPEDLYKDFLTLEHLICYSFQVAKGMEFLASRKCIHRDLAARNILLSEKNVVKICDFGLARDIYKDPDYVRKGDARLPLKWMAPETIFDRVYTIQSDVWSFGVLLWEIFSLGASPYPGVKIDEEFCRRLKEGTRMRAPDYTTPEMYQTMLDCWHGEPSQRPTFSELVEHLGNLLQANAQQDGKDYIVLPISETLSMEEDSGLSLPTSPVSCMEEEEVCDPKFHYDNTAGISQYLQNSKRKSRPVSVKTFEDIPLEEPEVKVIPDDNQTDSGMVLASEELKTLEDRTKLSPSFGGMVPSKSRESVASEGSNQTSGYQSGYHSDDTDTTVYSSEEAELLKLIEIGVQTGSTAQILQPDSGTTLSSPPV
Chain of Angiopoietin-1 receptor (Homo sapiens) (Q02763 whole entry): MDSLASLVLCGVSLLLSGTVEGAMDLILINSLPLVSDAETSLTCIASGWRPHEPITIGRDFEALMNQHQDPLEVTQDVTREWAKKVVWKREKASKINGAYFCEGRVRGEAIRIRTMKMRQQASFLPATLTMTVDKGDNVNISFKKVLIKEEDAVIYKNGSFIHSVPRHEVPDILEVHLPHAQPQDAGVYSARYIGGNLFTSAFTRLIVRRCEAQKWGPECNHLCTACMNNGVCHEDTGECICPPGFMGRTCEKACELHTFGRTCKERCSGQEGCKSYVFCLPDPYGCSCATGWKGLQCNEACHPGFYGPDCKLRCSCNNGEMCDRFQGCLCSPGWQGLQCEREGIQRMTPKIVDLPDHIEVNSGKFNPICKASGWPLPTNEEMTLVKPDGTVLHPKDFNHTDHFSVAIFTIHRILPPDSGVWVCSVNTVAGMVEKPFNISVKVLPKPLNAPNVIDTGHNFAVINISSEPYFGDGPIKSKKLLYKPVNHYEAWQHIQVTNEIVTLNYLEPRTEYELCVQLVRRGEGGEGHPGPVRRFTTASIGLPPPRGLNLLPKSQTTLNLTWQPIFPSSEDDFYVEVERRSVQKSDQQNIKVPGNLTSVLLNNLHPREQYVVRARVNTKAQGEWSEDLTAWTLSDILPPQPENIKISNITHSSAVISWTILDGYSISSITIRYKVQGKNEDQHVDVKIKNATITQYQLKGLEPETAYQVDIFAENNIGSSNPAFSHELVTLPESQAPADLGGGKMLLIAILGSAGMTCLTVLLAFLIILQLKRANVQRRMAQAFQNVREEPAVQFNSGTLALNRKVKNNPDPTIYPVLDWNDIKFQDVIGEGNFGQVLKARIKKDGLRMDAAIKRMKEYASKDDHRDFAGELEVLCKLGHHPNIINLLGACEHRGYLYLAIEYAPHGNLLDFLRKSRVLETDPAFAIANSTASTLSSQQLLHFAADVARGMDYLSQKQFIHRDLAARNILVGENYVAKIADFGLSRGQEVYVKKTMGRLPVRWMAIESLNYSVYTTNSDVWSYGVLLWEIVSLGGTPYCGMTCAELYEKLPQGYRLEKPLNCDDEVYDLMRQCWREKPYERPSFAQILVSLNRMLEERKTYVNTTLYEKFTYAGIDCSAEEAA
Chain of Proto-oncogene tyrosine-protein kinase Src (Homo sapiens) (P12931 2-536 limits assumed): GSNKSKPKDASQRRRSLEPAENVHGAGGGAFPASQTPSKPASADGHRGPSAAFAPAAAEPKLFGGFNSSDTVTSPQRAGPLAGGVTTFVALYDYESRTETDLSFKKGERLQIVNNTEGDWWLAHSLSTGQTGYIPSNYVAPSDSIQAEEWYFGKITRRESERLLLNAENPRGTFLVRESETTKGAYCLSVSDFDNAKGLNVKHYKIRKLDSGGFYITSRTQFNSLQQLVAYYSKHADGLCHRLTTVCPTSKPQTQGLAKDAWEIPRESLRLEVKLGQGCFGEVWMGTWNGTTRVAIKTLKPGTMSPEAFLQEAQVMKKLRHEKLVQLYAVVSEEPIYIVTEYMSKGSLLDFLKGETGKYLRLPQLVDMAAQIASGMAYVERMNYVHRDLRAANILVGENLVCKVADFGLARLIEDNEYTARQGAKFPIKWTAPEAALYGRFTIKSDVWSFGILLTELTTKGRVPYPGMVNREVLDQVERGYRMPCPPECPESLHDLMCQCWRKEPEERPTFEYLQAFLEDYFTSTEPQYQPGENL

COc1ccc(C(=O)NC(=O)Nc2ccc3c(c2)NC(=O)/C3=C\c2[nH]c(C)c(C(=O)NCCN3CCCC3)c2C)c(F)c1 [listing 1 of 2 here]
IC50 [1]: 14 nM | IC50 [2]: 2.3 nM | IC50 (Cytochrome P450 2C9): > 10000 nM | IC50 (Cytochrome P450 2C19): > 10000 nM | IC50 (Cytochrome P450 2D6): > 10000 nM | IC50 (Cytochrome P450 3A4): > 10000 nM | IC50 [3]: 9670 nM | Activity (Vero): Non-toxic | Vd [4]: 22.2 L/kg | clearance [5]: 8.33 mL/min/kg | half-life [6]: 27.6 h | half-life [7]: 8.6 h | Tmax [8]: 6 min | Tmax [9]: 1.7 h | Cmax [10]: 654 ng/mL | Cmax [11]: 20.9 ng/mL | AUC(0-t) at 24 h [12]: 1960 ng·h/mL | AUC(0-t) at 24 h [13]: 252 ng·h/mL | bioavailability [14]: 2.6% | inhibition in vivo at 10 mg/kg (MOLM-13 [15]): > 90% | Activity (Mus musculus): Non-toxic | inhibition in vivo at 10 mg/kg (MOLM-13 [16]): 95% | LD50 at 384 h [17]: > 20 mg/kg | selectivity ratio [18]: > 10 | Ratio [19]: 0.36 | IC50 (MV4-11): 2.4 nM | IC50 (MOLM-13 [20]): 0.7 nM | IC50 (THP-1 [21]): 48.9 nM | IC50 [22]: 2.8 nM | Papp [23]: 1.78 ×10⁻⁶ cm/s | IC50 [24]: > 10000 nM

COc1ccc(C(=O)NC(=O)Nc2ccc3c(c2)NC(=O)/C3=C\c2[nH]c(C)c(C(=O)NCCN3CCCC3)c2C)c(F)c1 [listing 2 of 2 here]
inhibition [25]: 20% | inhibition [26]: 62% | inhibition [27]: 38% | inhibition [28]: inactive | inhibition [29]: 57% | inhibition [30]: 74% | inhibition [31]: 13% | inhibition [32]: 55% | inhibition [33]: 32% | inhibition (MOLM-13 [34]): Dose-dependent effect | inhibition [35]: Dose-dependent effect | inhibition [36]: Dose-dependent effect | Activity (THP-1 [37]): Dose-dependent effect | Activity (THP-1 [38]): Dose-dependent effect | Activity (MOLM-13 [39]): Dose-dependent effect | Activity (MOLM-13 [40]): Dose-dependent effect | Activity (A549): Dose-dependent effect | Activity (MOLM-13 [41]): Active | inhibition [42]: 40% | inhibition [43]: 65% | inhibition [44]: 21% | inhibition [45]: 20% | inhibition [46]: inactive | inhibition [47]: 40% | inhibition [48]: 20% | inhibition [49]: 18% | inhibition [50]: inactive | inhibition [51]: 2% | inhibition [52]: 23% | inhibition [53]: 10% | inhibition [54]: inactive | inhibition [55]: 32% | inhibition [56]: 97%
